{"source": "patent US8354539B2", "about": "“Indole derivatives as IKK2 inhibitors” (Glaxo Group Limited, priority 2009, dated 2013)", "test_system": "polychromatic erythrocytes from rat bone marrow", "experiment": "Bone marrow micronucleus assay in rats", "details": "20 mg/kg/day oral, once only, male rats, positive control", "protocol": "The objective of this study was to assess the potential of 5-[2-(1-methylethyl)-2,3-dihydro-1H-isoindol-5-yl]-3-(1-{[2-(methyloxy)ethyl]sulfonyl}-4-piperidinyl)-1H-indole-7-carboxamide in induce structural chromosomal damage and/or aneuploidy in vivo, in polychromatic erythrocytes from rat bone marrow, when administered to rats for two consecutive days.\nCrl: CD(SD) rats were used in this study.\nDoses of 500, 1000, 2000 mg/kg/day of 5-[2-(1-methylethyl)-2,3-dihydro-1H-isoindol-5-yl]-3-(1-{[2-(methyloxy)ethyl]sulfonyl}-4-piperidinyl)-1H-indole-7-carboxamide, or vehicle (0.5% (w/v) aqueous hydroxypropylmethylcellulose containing 0.1% (w/v) Tween 80), were given orally (by gavage) to groups of 3 male and 3 female rats. […]\nDoses of 1000 or 2000 mg/kg/day—5-[2-(1-methylethyl)-2,3-dihydro-1H-isoindol-5-yl]-3-(1-{[2-(methyloxy)ethyl]sulfonyl}-4-piperidinyl)-1H-indole-7-carboxamide or vehicle (0.5% (w/v) aqueous hydroxypropylmethylcellulose containing 0.1% (w/v) Tween 80) were given orally, by gavage, on two consecutive days to groups of 6 male rats. […] Smears were stained with acridine orange prior to analysis with fluorescense microscopy to determine the proportion of polychromatic erythrocytes in the total erythrocyte count (% PCE) and the number of micronucleated polychromatic erythrocytes (MPCE) per 2000 PCE analysed."}
{"smiles": "O=P1(N(CCCl)CCCl)NCCCO1", "note": "(centres unmarked) [Cyclophosphamide, cyclophosphamide]", "values": [{"measurement": "Group Mean % PCE", "result": 46, "unit": "%"}, {"measurement": "Group Mean MPCE", "result": 51.87, "unit": "per 2000 PCE analysed"}]}
